Measured values reported in patent US20240109843A1, “BENZALDEHYDE COMPOUNDS WITH DIRECT POLYMER DESTABILIZING EFFECTS TO TREAT SICKLE CELL DISEASE” (VIRGINIA COMMONWEALTH UNIVERSITY, priority 2018, published 2024).

Legend:
Hb [1] = target: T1, Hb (Homo sapiens, UniProt P69905); assay: Drug partitioning studies, fixed and unfixed Hb adducts in non-sickling AA blood; type: cell-based; set-up: Hemoglobin modification, studies using non-sickling AA blood; from tissue; host or cells: non-sickling (AA) human blood, red blood cells; details: 2 mM; for Fixed Adducts (%) / Unfixed Adduct (%): 6 biological replicates; for Partitioning Ratio (%): fixed relative to unfixed adducts
Description: RBC partitioning studies were conducted both for SS RBCs following sickling studies above, or as separate independent studies with non-sickle blood. Briefly, aliquots of blood samples, which had been incubated with test molecules, were lysed either in deionized water (un-fixed), or in water containing 50 mM sodium borohydride (fixed). Samples were subjected to cation exchange HPLC analyses, as described above. Modified […] (Hb adducts) was determined as a proportion of total Hb in each sample, and partitioning ratio was determined as the relative fraction of Hb modification of fixed samples compared to corresponding non-fixed samples. The partitioning ratio is the relative fraction of Hb that was modified intracellularly by molecules that permeated the RBC membrane, as compared to unfixed adducts which reflect Hb binding without RBC membrane permeation.
Target sequence in this assay (P69905 2-142 limits assumed): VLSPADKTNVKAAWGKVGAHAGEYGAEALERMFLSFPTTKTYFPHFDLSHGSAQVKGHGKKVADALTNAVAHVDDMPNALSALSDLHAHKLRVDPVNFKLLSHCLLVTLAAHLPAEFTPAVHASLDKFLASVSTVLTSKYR
Target sequence in this assay (P68871 2-147 partner limits assumed): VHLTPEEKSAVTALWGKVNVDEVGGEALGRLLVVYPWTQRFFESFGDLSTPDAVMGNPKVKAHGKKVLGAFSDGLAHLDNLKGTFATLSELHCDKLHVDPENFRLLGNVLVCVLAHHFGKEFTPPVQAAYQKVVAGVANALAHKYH

Hb [2] = target: T1, Hb; assay: Hb modification (drug-adduct formation) in SS blood suspensions by cation-exchange HPLC; type: binding; set-up: Blood suspensions from subjects with homozygous SCD; from tissue; host or cells: blood suspensions (20% hematocrit) from donors with homozygous SCD; lysates of the treated red cells; details: 2 mM, 4 biological replicates
Description: All compounds (Comp 1-13) and comparator molecules (VZHE-039, PP-14, INN-310, and Voxelotor) were evaluated following established procedures. Blood samples from individual donors with homozygous SCD (obtained with informed consent) were diluted using Hemox buffer solution with the addition of glucose (10 mM) and BSA (0.2%) to adjust hematocrit of the blood suspensions to 20%, which standardizes the procedure to normalize the ratio of RBCs to drug, for assay consistency and reproducibility. Briefly, blood suspensions were incubated under room air in the presence of various concentrations of test compounds (0-2 mM) at 37° C. for 1 hour in 96-well round bottom plates. Subsequently, the suspensions were incubated with a hypoxic gas mixture (2.5% Oxygen gas/balance Nitrogen gas) at 37° C. for up to 2 hours prior to fixation with 2% glutaraldehyde solution without exposure to air. The fixated blood aliquots were evaluated by microscopic morphological analysis (image analysis on Image J software) to identify the proportion of sickled and non-sickled RBCs, and sickle inhibition calculated based on the % change from negative control (DMSO).
The residual samples were then washed in phosphate-buffered saline, and hemolyzed in hypotonic lysis buffer, with or without sodium borohydride (50 mM). Aliquots obtained from the lysates with or without sodium borohydride (to reduce Schiff base adducts) were also assessed for level of Hb modification (drug-adduct formation) by cation-exchange HPLC (Hitachi D-7000 Series, Hitachi Instruments, Inc., San Jose, CA) with a weak cation-exchange column (Poly CAT A: 50 mm×4.6 mm, Poly LC, Inc., Columbia, MD). Hemoglobin isotype peaks are eluted with a linear gradient of phase B from 0% to 80% at A410 nm (Mobile Phase A: 40 mM Bis-Tris, 2 mM KCN, pH 6.9; Phase B: 40 mM Bis-Tris, 2 mM KCN, 0.2 M sodium chloride, pH 6.55). Clarified lysate from normal human adult […] (Hb A), as well as commercial standards containing approximately equal amounts of Hb F, A, S and C (Helena Laboratories, Beaumont, TX), were utilized as reference isotypes. Reduced samples were used to assess “fixed adduct” formation (dependent on RBC membrane permeability), whereas non-reduced samples assessed drug-adduct formation independent of drug permeability.
Target sequence in this assay (P69905 2-142): as the sequence (P69905 2-142 limits assumed) above
Target sequence in this assay (P68871 with tags, fused parts or gaps E7V partner): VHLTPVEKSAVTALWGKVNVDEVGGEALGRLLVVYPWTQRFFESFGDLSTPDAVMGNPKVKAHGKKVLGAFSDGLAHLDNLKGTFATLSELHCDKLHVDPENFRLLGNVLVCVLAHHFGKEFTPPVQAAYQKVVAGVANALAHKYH

[3] = system: RBCs from donors with homozygous SCD; assay: Oxygen-independent sickle inhibition in SS blood suspensions under anoxia (100% nitrogen); type: cell-based, human; details: anoxia
Description: To establish oxygen-independent sickle inhibition, the incubation chamber was subsequently opened and exposed to room air for 15 minutes to ensure complete re-oxygenation and reversal of the sickled cells to normal round cells. Reversal was confirmed by microscopy. The incubation chamber was then closed, and the assay was repeated with incubation in 100% nitrogen gas for 1 hour (for screening), or up to 2.5 h (for time-course studies), with collection and fixation of blood aliquots at defined intervals. Aliquot samples were again subjected to microscopic morphological analysis of bright field images to identify the proportion of sickled and non-sickled cells, and sickle inhibition calculated.

sickle red blood cells = assay: Antisickling study with human sickle blood under 2.5% oxygen; type: cell-based; details: sickle RBCs; for inhibition at 500 µM / inhibition at 1000 µM: Homo sapiens, Erythrocyte, 2.5% oxygen, read-out: sickling inhibition; for inhibition at 500 µM: 0.5 mM; for inhibition at 1000 µM: 1 mM
Description: (§1) Blood suspensions from subjects with homozygous SCD (resuspended in Hemox™ buffer to a final hematocrit 20%) were incubated under air in the absence or presence of the compounds (0.5 mM, 1 mM and 2 mM) at 37° C. for 1 h to ensure that binding had attained equilibrium. The suspensions were then incubated under hypoxic conditions (2.5% oxygen/97.5% nitrogen) at 37° C. for 1 h. Aliquot samples were fixed with 2% glutaraldehyde solution without exposure to air, and then subjected to microscopic morphological analysis of bright field images (at 40× magnification) of single layer cells on an Olympus BX40 microscope fitted with an Infinity Lite B camera (Olympus), and the coupled Image Capture software. The residual samples were washed in phosphate-buffer saline, and hemolyzed in hypotonic lysis buffer for subsequent Hb-modification and oxygen equilibrium analyses.
The studies described above were conducted using normal whole blood. Next, we investigated whether the improvement in Hb oxygen affinity and the compounds sustained activity also translated to similar effects in SS blood from SCD patients. […] At 1 mM, PP8 and PP9 inhibited nearly 100% of sickling, while PP2, PP6, PP14 inhibited sickling by more than 70%. […] It is clear that the modifications of the present compounds has led to significant improvement in antisickling activity.

Hb [4] = target: T1, Hb; assay: Oxygen equilibrium curve (OEC) studies with normal whole blood; type: cell-based; set-up: Hemoglobin modification, studies using non-sickling AA blood; from tissue; host or cells: non-sickling (AA) human blood, red blood cells; details: normal whole blood, 0.5, 1, 2 mM
Description: Oxygen equilibrium curve (OEC) studies to determine the effect of the compounds on Hb affinity for oxygen were conducted following standard procedure. Whole blood (30% hematocrit) was incubated in the absence or presence of compounds (0.5 mM, 1.0 mM and 2.0 mM) solubilized in DMSO. […] After equilibration, the sample was removed via syringe and aspirated into an ABL 700 series table top automated blood gas analyzer (Radiometer America, Inc., Westlake, OH) to determine total hemoglobin (tHb), hematocrit (Hct), pH, pCO2, partial pressure of oxygen (pO2), and the Hb-O2 saturation (sO2) values. The measured values of pO2 and sO2 at each oxygen saturation level were then subjected to nonlinear regression analysis using the software Scientist (Micromath, Salt Lake City UT) with the following equation: […]
Aromatic aldehydes are known to prevent hypoxia-induced Hb S polymerization by increasing the Hb affinity for oxygen. We therefore tested the PP compounds in a dose-dependent manner (0.5, 1, 2 mM) for their effect on Hb oxygen binding property. […] These findings confirmed that the potent in vitro activity previously seen in TD7 was at least conserved in the novel PP compounds.
Target sequence in this assay (P69905 2-142 limits assumed): as the sequence (P69905 2-142 limits assumed) above
Target sequence in this assay (P68871 2-147 partner limits assumed): as the sequence (P68871 2-147 partner limits assumed) above

sickle Hb = target: T2, sickle Hb (Homo sapiens, UniProt P69905); assay: Oxygen equilibrium (P50 shift) of lysates from treated sickle blood; type: cell-based; details: 0.5, 1 and 2 mM, SS blood
T2 construct: Blood suspensions from subjects with homozygous SCD; from tissue; host or cells: blood suspensions (20% hematocrit) from donors with homozygous SCD; lysates of the treated red cells
Description: as §1
For oxygen equilibrium studies, approximately 100 μL aliquot samples from the above clarified lysate were added to 4 mL of 0.1M potassium phosphate buffer, pH 7.0, in cuvettes and subjected to hemoximetry analysis using a Hemox™ Analyzer (TCS Scientific Corp.) to assess P50 shifts. Degree of P50 shift (ΔP50) was expressed as percentage fractions of control DMSO-treated samples.

intracellular Hb = target: T3, intracellular Hb (Mus musculus, UniProt P01942); assay: In vivo modification of intracellular Hb in wild-type mice; set-up: species or system C57BL/6 mice; details: IP 150 mg/kg, 30% PEG300, 6 h
T3 construct: from tissue; host or cells: blood (red cell lysates) of dosed C57BL/6 mice
Description: We tested in vivo pharmacologic (pharmacodynamics) effects of select PP compounds in C57BL/6 mice. The animals were treated with a single intraperitoneal (IP) (150 mg/kg body weight) dose of PP6, PP10, PP14, and TD7, which were formulated with 30% PEG300. Blood samples were obtained prior to treatment (0) and 1, 3 and 6 h post-treatment, via submandibular bleeding, and subjected to hemolysis using standard methods. Clarified lysates, free of cell debris and red blood cell ghosts were analyzed by cation-exchange HPLC to determine the levels of drug-modified hemoglobin (adducts); and to conduct oxygen equilibrium studies to determine degrees of shift in p50 values using methodologies described earlier for in vitro studies on human samples. In a subsequent follow-up experiment, a new excipient obtained from Catalent Pharma Solutions was also used to formulate PP14 and used for a single intraperitoneal (IP) and oral (150 mg/kg body weight) dose. Blood samples were obtained prior to treatment (0) and 1, 3 or 5 h post-treatment, via submandibular bleeding, and used to determine the levels of drug-modified hemoglobin (adducts); and to conduct oxygen equilibrium studies to determine degrees of shift in p50 values as described above.

T2 sequence (P69905 2-142 limits assumed): as the sequence (P69905 2-142 limits assumed) above
T3 sequence (P01942 2-142 limits assumed): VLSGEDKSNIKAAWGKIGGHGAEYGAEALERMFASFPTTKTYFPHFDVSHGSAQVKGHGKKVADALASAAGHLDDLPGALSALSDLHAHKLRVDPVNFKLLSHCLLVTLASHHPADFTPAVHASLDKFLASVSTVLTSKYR
T3 sequence (P02088 2-147 partner limits assumed): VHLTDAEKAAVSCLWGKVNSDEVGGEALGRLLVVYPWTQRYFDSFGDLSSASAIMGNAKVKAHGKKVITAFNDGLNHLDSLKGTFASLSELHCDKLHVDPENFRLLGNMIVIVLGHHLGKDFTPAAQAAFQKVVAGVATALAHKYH

SMILES	Fixed Adducts (%) (Hb [1])	Unfixed Adduct (%) (Hb [1])	Partitioning Ratio (%) (Hb [1])	Hb Modification (%) (Hb [2])	polymer destabilizing effect / sickle inhibition in anoxia (in words) [3]	inhibition at 500 µM (sickle red blood cells)	inhibition at 1000 µM (sickle red blood cells)	effect on Hb oxygen binding property (OEC) (Hb [4])	increase of Hb affinity for oxygen in sickle blood (in words) (sickle Hb)	other results
O=Cc1c(F)cc(F)cc1OCc1ccccn1 [Comp 9, 2,4-difluoro-6-(pyridin-2-ylmethoxy)benzaldehyde]	72.7 ± 4.1%	69.4 ± 7.5%	105.2 ± 5.9%	69.1 ± 11.8%	completely negates the polymer destabilization effects					
O=Cc1c(OCc2cccnc2)ccc(F)c1O [Comp 12, 3-fluoro-2-hydroxy-6-(pyridin-3-ylmethoxy)benzaldehyde]	80.4 ± 9.1%	80.8 ± 5.9%	99.4 ± 4.2%	99.8 ± 0.4%	significantly reduced the potency of polymer inhibition					
O=Cc1c(F)cc(F)cc1OCc1ncccc1F [Comp 13, 2,4-difluoro-6-((3-fluoropyridin-2-yl)methoxy)benzaldehyde]	80.7 ± 4.8%	78.4 ± 6.1%	103.0 ± 2.9%	79.1 ± 10.3%	completely negates the polymer destabilization effects					
COc1ccc(OCc2ccccn2)c(C=O)c1 [INN-310, reference compound]	82.0 ± 3.1%	79.7 ± 4.3%	103.0 ± 1.7%	65.7 ± 6.0%	only weak potency in anoxia					
COC(=O)c1cccnc1COc1ccc(OC)cc1C=O [PP2, Methyl 2-((2-formyl-4-methoxyphenoxy)methyl)nicotinate]						> 35%	> 70%	most significant activities	only marginally increasing Hb affinity for oxygen	
COC(=O)c1cccc(COc2ccc(OC)cc2C=O)n1 [PP3, Methyl 6-((2-formyl-4-methoxyphenoxy)methyl)picolinate]									only marginally increasing Hb affinity for oxygen	
COC(=O)c1cccnc1COc1cccc(O)c1C=O [PP6, Methyl 2-((2-formyl-3-hydroxyphenoxy)methyl)nicotinate]						> 35%	> 70%	most significant activities	only marginally increasing Hb affinity for oxygen	modified Hb (intracellular Hb): 16.9±1.4%
COC(=O)c1ncccc1COc1ccc(OC)cc1C=O [PP8, Methyl 3-((2-formyl-4-methoxyphenoxy)methyl)picolinate]						> 35%	~100%		only marginally increasing Hb affinity for oxygen	
COC(=O)c1ccc(COc2ccc(OC)cc2C=O)nc1 [PP9]							~100%	most significant activities	only marginally increasing Hb affinity for oxygen	
COc1cc(C=O)ccc1O [vanillin, reference compound]								very weak functional effect		sickling inhibition (in words) (sickle red blood cells; 0.5, 1 and 2 mM): minimal sickling inhibition
